Values joined by “and” are separate entries in the source; they are usually repeats but may differ in a detail not shown here. Identical values can stand only once. Each block holds one molecule with its values, some of them ahead of it.
Key:
HRH2 = biological target: T1, HRH2 (Homo sapiens, UniProt P25021); test: PRESTO-Tango GPCR screen and dose-response; assay type: cell-based; details: for HRH2 dose-response raw reporter signal (Fig. 5b source data): replicate wells
T1 construct: expressed in transfected cells; host or cells: HTLA cells (HEK293 line stably expressing β-arrestin-TEV and tTA-Luciferase)
T1 sequence (P25021 whole entry): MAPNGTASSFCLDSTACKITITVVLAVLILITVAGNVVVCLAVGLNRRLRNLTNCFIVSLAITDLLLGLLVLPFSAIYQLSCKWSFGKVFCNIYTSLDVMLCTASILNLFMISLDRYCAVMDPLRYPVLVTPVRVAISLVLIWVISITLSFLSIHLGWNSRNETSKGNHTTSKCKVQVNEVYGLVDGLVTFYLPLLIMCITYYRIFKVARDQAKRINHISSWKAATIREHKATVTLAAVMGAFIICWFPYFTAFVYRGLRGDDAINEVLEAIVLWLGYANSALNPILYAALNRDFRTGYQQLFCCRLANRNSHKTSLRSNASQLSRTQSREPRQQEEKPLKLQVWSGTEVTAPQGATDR
Experimental: (§1) The PRESTO-Tango analyses were performed as previously published. Briefly, HTLA cells, a HEK293 cell line that stably expresses β-arrestin-TEV and tTA-Luciferase (a kind gift from Gilad Barnea, Brown University), were plated in 96-well tissue culture plates (Eppendorf) in DMEM containing 10% FBS and 1% Penicillin/Streptomycin. One day after plating (after reaching approximately 90% confluence), 200 ng per well GPCR-Tango plasmids[37] in 20 μL DMEM were individually mixed with 400 ng polyethylenimine (Polysciences) in an equal volume of DMEM and incubated for 20 min at room temperature before adding the transfection mixture to the HTLA cells. 16-24 h after transfection, medium was replaced with 180 μL fresh DMEM containing 1% Penicillin/Streptomycin and 10 mM HEPES and 20 μL of 3 or 3-Homo to reach a final concentration of 100 μM. Supernatants were aspirated 20 h after stimulation and 50 μl per well of Bright-Glo solution (Promega) diluted 20-fold with PBS containing 20 mM HEPES was added into each well. After 15 min incubation at room temperature, luminescence was quantified using a Spectramax i3x microplate reader (Molecular Devices). Activation fold for each sample was calculated by dividing relative luminescence units (RLU) for each condition by RLUs from PBS control. Dose response curves of each chemical were performed in a similar way with varying the ligand concentration from 10^−4 M to 10^−15 M.

[1] = biological target: T2, histamine receptor H4 (HRH4) (Homo sapiens, UniProt Q9H3N8); test: PRESTO-Tango GPCR screen and dose-response; assay type: cell-based; details: for HRH4 dose-response raw reporter signal (Fig. 5b source data): replicate wells
T2 construct: expressed in transfected cells; host or cells: HTLA cells (HEK293 line stably expressing β-arrestin-TEV and tTA-Luciferase)
Experimental: as §1

HRH1 = biological target: T3, HRH1 (Homo sapiens, UniProt P35367); test: PRESTO-Tango GPCR screen and dose-response; assay type: cell-based; details: for HRH1 dose-response raw reporter signal (Fig. 5b source data): replicate wells
T3 construct: expressed in transfected cells; host or cells: HTLA cells (HEK293 line stably expressing β-arrestin-TEV and tTA-Luciferase)
T3 sequence (P35367 whole entry): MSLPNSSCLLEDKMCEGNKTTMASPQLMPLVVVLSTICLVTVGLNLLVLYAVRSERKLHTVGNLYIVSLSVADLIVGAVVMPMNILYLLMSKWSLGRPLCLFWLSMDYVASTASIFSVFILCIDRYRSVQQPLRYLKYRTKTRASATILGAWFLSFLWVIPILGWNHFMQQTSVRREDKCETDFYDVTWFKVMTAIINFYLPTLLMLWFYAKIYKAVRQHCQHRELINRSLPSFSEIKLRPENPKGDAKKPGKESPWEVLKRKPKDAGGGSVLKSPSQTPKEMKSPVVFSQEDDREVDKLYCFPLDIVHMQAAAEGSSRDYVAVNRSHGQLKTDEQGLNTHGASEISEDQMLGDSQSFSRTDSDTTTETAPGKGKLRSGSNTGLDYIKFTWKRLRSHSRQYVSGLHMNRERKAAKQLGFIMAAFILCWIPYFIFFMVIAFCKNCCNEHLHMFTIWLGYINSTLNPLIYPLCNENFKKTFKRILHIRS
Experimental: as §1

HRH3 = biological target: T4, HRH3 (Homo sapiens, UniProt Q9Y5N1); test: PRESTO-Tango GPCR screen and dose-response; assay type: cell-based; details: for HRH3 dose-response raw reporter signal (Fig. 5b source data): replicate wells
T4 construct: expressed in transfected cells; host or cells: HTLA cells (HEK293 line stably expressing β-arrestin-TEV and tTA-Luciferase)
T4 sequence (Q9Y5N1 whole entry): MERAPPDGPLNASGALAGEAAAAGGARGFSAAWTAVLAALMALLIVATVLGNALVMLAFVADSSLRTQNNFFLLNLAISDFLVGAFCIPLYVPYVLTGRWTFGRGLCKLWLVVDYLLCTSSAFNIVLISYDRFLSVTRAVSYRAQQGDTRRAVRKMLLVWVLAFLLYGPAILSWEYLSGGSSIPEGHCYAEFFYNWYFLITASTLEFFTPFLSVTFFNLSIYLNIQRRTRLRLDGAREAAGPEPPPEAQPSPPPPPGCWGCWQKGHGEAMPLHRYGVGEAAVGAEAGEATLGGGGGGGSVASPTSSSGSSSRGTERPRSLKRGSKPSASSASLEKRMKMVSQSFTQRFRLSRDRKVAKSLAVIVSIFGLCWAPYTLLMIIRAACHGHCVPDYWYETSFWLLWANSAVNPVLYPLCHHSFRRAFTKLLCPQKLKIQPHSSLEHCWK
Experimental: as §1

[2] = test system: leup operon (leupeptin BGC) promoter in K. oxytoca ATCC 8724; test: GFP-based transcriptional reporter for the leup operon; assay type: cell-based, Klebsiella oxytoca; details: carbohydrate screen, M9 + casamino acid + 0.4% indicated sugar, 30 °C, 24 h; for GFP fluorescence, GFP Strain + Media: leup GFP reporter strain; for GFP fluorescence, WT + Media: wildtype K. oxytoca without reporter (background)
Excerpt: We previously examined a panel of 84 clinical K. oxytoca isolates (including recently renamed Klebsiella michiganensis isolates) for the presence of either the leup operon or npsB, an NRPS of the tilimycin/tilivalline gene cluster. […] While the roles of tilivalline and tilimycin in hemorrhagic colitis are well studied[8],[9], the operon for leupeptin biosynthesis is “silent” in K. oxytoca under typical laboratory culture conditions (i.e., leupeptin production is undetectable). Therefore, our study commenced by exploring growth conditions required to trigger leupeptin biosynthesis in K. oxytoca. To achieve this, we generated a green fluorescent protein (GFP)-based reporter system to monitor leup transcription in K. oxytoca ATCC 8724 (recently renamed as Klebsiella michiganensis (ATCC 8724), Fig. 1a). We utilized λ-red recombineering techniques[38] to replace the first biosynthetic gene (leupA) of the leupeptin BGC with a GFP-spectinomycin resistance cassette. […] Consequently, conditions that elicit transcription of the leupeptin BGC can be monitored by GFP fluorescence intensity.
5 mL of the leupeptin reporter strain was cultured aerobically in 10 g/L of LB (Becton Dickinson), yeast extract, GAM (HiMedia Laboratories), horse liver extract (HiMedia Laboratories), malt extract (VWR), meat extract (HiMedia Laboratories), YPD (Dot Scienticifc), brain heart infusion (Becton Dickinson), porcine mucin (Sigma-Aldrich, M1778), clostridial (Becton Dickinson), TSB (VWR), or casamino acid supplemented (5 g/L, VWR) M9 minimal salts (MP Biomedicals) at 30 °C for 24 h at 250 rpm. Cultures were lysed via sonication, centrifuged, and 150 µL of the supernatants were aliquoted into black well clear bottom 96 well plates. GFP fluorescence measurements were performed on a BioTek Synergy H1 plate reader with an excitation wavelength of 488 nm and an emission wavelength of 525 nm. For the carbohydrate screen, the leupeptin reporter strain was cultured in M9 minimal medium (MPbio) supplemented with casamino acid (5 g/L, VWR) and 0.4% indicated sugar aerobically at 30 °C for 24 h at 250 rpm.

HRH2 dose-response raw reporter signal (Fig. 5b source data) (HRH2; Log(10)Conc (M) -4): 83 and 65 and 100
HRH2 dose-response raw reporter signal (Fig. 5b source data) (HRH2; Log(10)Conc (M) -5): 41 and 50 and 56
HRH2 dose-response raw reporter signal (Fig. 5b source data) (HRH2; Log(10)Conc (M) -6): 56 and 47 and 32
HRH2 dose-response raw reporter signal (Fig. 5b source data) (HRH2; Log(10)Conc (M) -7): 65 and 62 and 35
HRH2 dose-response raw reporter signal (Fig. 5b source data) (HRH2; Log(10)Conc (M) -8): 97 and 47 and 41
HRH2 dose-response raw reporter signal (Fig. 5b source data) (HRH2; Log(10)Conc (M) -9): 41 and 35 and 77
HRH2 dose-response raw reporter signal (Fig. 5b source data) (HRH2; Log(10)Conc (M) -10): 38 and 80 and 41
HRH2 dose-response raw reporter signal (Fig. 5b source data) (HRH2; Log(10)Conc (M) -11): 91 and 32 and 56
HRH2 dose-response raw reporter signal (Fig. 5b source data) (HRH2; Log(10)Conc (M) -12): 53 and 71 and 59
HRH2 dose-response raw reporter signal (Fig. 5b source data) (HRH2; Log(10)Conc (M) -13): 38 (2×) and 85
HRH2 dose-response raw reporter signal (Fig. 5b source data) (HRH2; Log(10)Conc (M) -14): 38 and 65 and 56
HRH2 dose-response raw reporter signal (Fig. 5b source data) (HRH2; Log(10)Conc (M) -15): 32 and 41 and 83
activity towards HRH2 (HRH2; PRESTO-Tango dose-response): no activity
HRH4 dose-response raw reporter signal (Fig. 5b source data) ([1]; Log(10)Conc (M) -5): 427 and 460
HRH4 dose-response raw reporter signal (Fig. 5b source data) ([1]; Log(10)Conc (M) -6): 342 and 348
HRH4 dose-response raw reporter signal (Fig. 5b source data) ([1]; Log(10)Conc (M) -7): 348 and 321
HRH4 dose-response raw reporter signal (Fig. 5b source data) ([1]; Log(10)Conc (M) -8): 410 and 321
HRH4 dose-response raw reporter signal (Fig. 5b source data) ([1]; Log(10)Conc (M) -9): 324 and 251
HRH4 dose-response raw reporter signal (Fig. 5b source data) ([1]; Log(10)Conc (M) -10): 377 and 368
HRH4 dose-response raw reporter signal (Fig. 5b source data) ([1]; Log(10)Conc (M) -11): 262 and 307
HRH4 dose-response raw reporter signal (Fig. 5b source data) ([1]; Log(10)Conc (M) -12): 407 and 336
HRH4 dose-response raw reporter signal (Fig. 5b source data) ([1]; Log(10)Conc (M) -13): 298 and 395
HRH4 dose-response raw reporter signal (Fig. 5b source data) ([1]; Log(10)Conc (M) -14): 268
HRH4 dose-response raw reporter signal (Fig. 5b source data) ([1]; Log(10)Conc (M) -15): 215 and 212
activity towards HRH4 ([1]; PRESTO-Tango dose-response): no activity
HRH1 dose-response raw reporter signal (Fig. 5b source data) (HRH1; Log(10)Conc (M) -4): 50545 and 47748
HRH1 dose-response raw reporter signal (Fig. 5b source data) (HRH1; Log(10)Conc (M) -5): 50057 and 47492
HRH1 dose-response raw reporter signal (Fig. 5b source data) (HRH1; Log(10)Conc (M) -6): 50434 and 47377
HRH1 dose-response raw reporter signal (Fig. 5b source data) (HRH1; Log(10)Conc (M) -7): 50075 and 47693
HRH1 dose-response raw reporter signal (Fig. 5b source data) (HRH1; Log(10)Conc (M) -8): 49488 and 47793
HRH1 dose-response raw reporter signal (Fig. 5b source data) (HRH1; Log(10)Conc (M) -9): 48159 and 46626
HRH1 dose-response raw reporter signal (Fig. 5b source data) (HRH1; Log(10)Conc (M) -10): 48713 and 47646
HRH1 dose-response raw reporter signal (Fig. 5b source data) (HRH1; Log(10)Conc (M) -11): 49358 and 47065
HRH1 dose-response raw reporter signal (Fig. 5b source data) (HRH1; Log(10)Conc (M) -12): 50278 and 46581
HRH1 dose-response raw reporter signal (Fig. 5b source data) (HRH1; Log(10)Conc (M) -13): 49874 and 48613
HRH1 dose-response raw reporter signal (Fig. 5b source data) (HRH1; Log(10)Conc (M) -14): 50243 and 49745
HRH1 dose-response raw reporter signal (Fig. 5b source data) (HRH1; Log(10)Conc (M) -15): 45927 and 43079
activity towards HRH1 (HRH1; PRESTO-Tango dose-response): no activity
HRH3 dose-response raw reporter signal (Fig. 5b source data) (HRH3; Log(10)Conc (M) -4): 348 and 274 and 324
HRH3 dose-response raw reporter signal (Fig. 5b source data) (HRH3; Log(10)Conc (M) -5): 112 and 156 and 153
HRH3 dose-response raw reporter signal (Fig. 5b source data) (HRH3; Log(10)Conc (M) -6): 127 and 174 and 142
HRH3 dose-response raw reporter signal (Fig. 5b source data) (HRH3; Log(10)Conc (M) -7): 91 and 130 and 165
HRH3 dose-response raw reporter signal (Fig. 5b source data) (HRH3; Log(10)Conc (M) -8): 168 and 112 and 162
HRH3 dose-response raw reporter signal (Fig. 5b source data) (HRH3; Log(10)Conc (M) -9): 127 and 103 and 139
HRH3 dose-response raw reporter signal (Fig. 5b source data) (HRH3; Log(10)Conc (M) -10): 174 and 144 and 115
HRH3 dose-response raw reporter signal (Fig. 5b source data) (HRH3; Log(10)Conc (M) -11): 162 (2×) and 97
HRH3 dose-response raw reporter signal (Fig. 5b source data) (HRH3; Log(10)Conc (M) -12): 139 and 168 and 144
HRH3 dose-response raw reporter signal (Fig. 5b source data) (HRH3; Log(10)Conc (M) -13): 183 and 168 and 153
HRH3 dose-response raw reporter signal (Fig. 5b source data) (HRH3; Log(10)Conc (M) -14): 183 and 85 and 150
HRH3 dose-response raw reporter signal (Fig. 5b source data) (HRH3; Log(10)Conc (M) -15): 94 and 115 and 112
activity towards HRH3 (HRH3; PRESTO-Tango dose-response): no activity
Compound: COC(=O)CCc1nc(Cc2ccccc2)c(CCC(=O)O)nc1Cc1ccccc1 [9-Me]

Compound: CC(C)S[C@@H]1O[C@H](CO)[C@H](O)[C@H](O)[C@H]1O [IPTG]
GFP fluorescence, GFP Strain + Media [2]: 9918 RFU
GFP fluorescence, WT + Media [2]: 8873 RFU

Compound: N[C@H]1C(O)O[C@H](CO)[C@@H](O)[C@@H]1O (stereo partly shown) [Glucosamine]
GFP fluorescence, GFP Strain + Media [2]: 9974 RFU
GFP fluorescence, WT + Media [2]: 5479 RFU

Reference: PMC11480411, “Mucosal sugars delineate pyrazine vs pyrazinone autoinducer signaling in Klebsiella oxytoca” (Nature Communications, 2024)
